Experimental data from ChEMBL document CHEMBL5584354, “Impact of Conjugation of the Reactive Oxygen Species (ROS)-Generating Catalytic Moiety with Membrane-Active Antimicrobial Peptoids: Promoting Multitarget Mechanism and Enhancing Selectivity” (J Med Chem, 2024).
Values after ≈ are worked out from the molar mass of the structure shown. Non-standard residues stand in square brackets, D forms with d. Residues, ends and D or L forms follow the SMILES beside them. *: point of attachment. X3 = NC(=O)[C@H](Cc1c[nH]cn1)NC(=O)CNC(=O)[C@@H](N)CN(CCc1c[nH]c2ccccc12)*; X1 = NC(=O)[C@H](Cc1c[nH]cn1)NC(=O)CNC(=O)[C@@H](N)CN*; Gly(N(CH2)2(3-indolyl)) = O=C(O)CNCCc1c[nH]c2ccccc12; Nspe = C[C@H](NCC(=O)O)c1ccccc1; Nphe = O=C(O)CNCc1ccccc1; Nlys = NCCCCNCC(=O)O

What was measured:
Escherichia coli = experiment: Antibacterial activity against Escherichia coli ATCC 25922 assessed as inhibition of bacterial growth incubated for 24 hrs by broth dilution method; type: functional
Staphylococcus aureus = experiment: Antibacterial activity against Staphylococcus aureus ATCC 25923 assessed as inhibition of bacterial growth incubated for 24 hrs by broth dilution method; type: functional
[1] = Hemolytic activity in male Sprague-Dawley rat erythrocytes at 25 uM incubated for 1 hr by absorbance based method relative to control; type: toxicity, cell-based, Erythrocyte; conditions: read-out: Activity
[2] = Hemolytic activity in male Sprague-Dawley rat erythrocytes at 50 uM incubated for 1 hr by absorbance based method relative to control; type: toxicity, cell-based, Erythrocyte; conditions: read-out: Activity
[3] = Hemolytic activity in male Sprague-Dawley rat erythrocytes at 100 uM incubated for 1 hr by absorbance based method relative to control; type: toxicity, cell-based, Erythrocyte; conditions: read-out: Activity
Erythrocyte = experiment: Hemolytic activity in male Sprague-Dawley rat erythrocytes assessed as concentration required for 10% hemolysis incubated for 1 hr by absorbance based method; type: toxicity, cell-based
[4] = Hemolytic activity in male Sprague-Dawley rat erythrocytes assessed as concentration required for 50% hemolysis incubated for 1 hr by absorbance based method; type: toxicity, cell-based, Erythrocyte
[5] = Selectivity index, ratio of HC10 for hemolytic activity in male Sprague-Dawley rat erythrocytes to MIC for antibacterial activity against Escherichia coli ATCC 25922; type: toxicity; conditions: read-out: Selectivity Index

SMILES	MIC (Escherichia coli) [µM]	MIC (Staphylococcus aureus) [µM]	hemolysis at 1 h, 25 µM [1] [%]	hemolysis at 1 h, 50 µM [2] [%]	hemolysis at 1 h, 100 µM [3] [%]	HC10 (Erythrocyte) [µM]	HC50 at 1 h [4] [µM]	selectivity ratio [5]
C[C@@H](c1ccccc1)N(CC(N)=O)C(=O)CN(CCCCN)C(=O)CN(CCCCN)C(=O)CN(C(=O)CN(C(=O)CN(CCCCN)C(=O)CN(C(=O)CN(C(=O)CN(CCCCN)C(=O)CN(CCc1c[nH]c2ccccc12)C(=O)CN(CCc1c[nH]c2ccccc12)C(=O)CNCCCCN)[C@@H](C)c1ccccc1)[C@@H](C)c1ccccc1)[C@@H](C)c1ccccc1)[C@@H](C)c1ccccc1	6.3 (≈ 11.7 µg/mL)	3.1 (≈ 5.78 µg/mL)	4.95	8.77	11.1	75.3	> 100	13.5
C[C@@H](c1ccccc1)N(CC(=O)N(CCCCN)CC(=O)N(CC(=O)N(CC(=O)N(CCCCN)CC(=O)N(CC(=O)N(CC(=O)N(CCCCN)CC(=O)N(CCc1c[nH]c2ccccc12)CC(=O)N(CCc1c[nH]c2ccccc12)C[C@H](N)C(=O)NCC(=O)N[C@@H](Cc1c[nH]cn1)C(N)=O)[C@@H](C)c1ccccc1)[C@@H](C)c1ccccc1)[C@@H](C)c1ccccc1)[C@@H](C)c1ccccc1)C(=O)CN(C(=O)CNCCCCN)[C@@H](C)c1ccccc1 (H-[Nlys][Nspe][Nspe][Nlys][Nspe][Nspe][Nlys][Nspe][Nspe][Nlys][Gly(N(CH2)2(3-indolyl))]-X3)	6.3 (≈ 13.4 µg/mL)	1.6 (≈ 3.39 µg/mL)	11.1	20.3	29	25.4	> 100	4
C[C@@H](c1ccccc1)N(CC(N)=O)C(=O)CN(C(=O)CN(CCCCN)C(=O)CN(C(=O)CN(C(=O)CN(CCCCN)C(=O)CN(C(=O)CN(C(=O)CN(CCCCN)C(=O)CN(CCc1c[nH]c2ccccc12)C(=O)CN(CCc1c[nH]c2ccccc12)C(=O)CNCCCCN)[C@@H](C)c1ccccc1)[C@@H](C)c1ccccc1)[C@@H](C)c1ccccc1)[C@@H](C)c1ccccc1)[C@@H](C)c1ccccc1	3.1 (≈ 5.88 µg/mL)	< 0.8	33	55.3	73.9	7.9	63.6	2.5
C[C@@H](c1ccccc1)N(CC(=O)N(CCCCN)CC(=O)N(CC(=O)N(CC(=O)N(CCCCN)CC(=O)N(CC(=O)N(CC(=O)N(CCCCN)CC(=O)N(CCc1c[nH]c2ccccc12)CC(=O)N(CCc1c[nH]c2ccccc12)CC(N)=O)[C@@H](C)c1ccccc1)[C@@H](C)c1ccccc1)[C@@H](C)c1ccccc1)[C@@H](C)c1ccccc1)C(=O)CN(C(=O)CNCCCCN)[C@@H](C)c1ccccc1 (H-[Nlys][Nspe][Nspe][Nlys][Nspe][Nspe][Nlys][Nspe][Nspe][Nlys][Gly(N(CH2)2(3-indolyl))][Gly(N(CH2)2(3-indolyl))]-NH2)	6.3 (≈ 12 µg/mL)	1.6 (≈ 3.04 µg/mL)	29.9	50.7	69.4	7.7	63.8	1.2
C[C@@H](c1ccccc1)N(CC(=O)N(CCCCN)CC(=O)N(CC(=O)N(CC(=O)N(CCCCN)CC(=O)N(CC(=O)N(CC(N)=O)Cc1ccccc1)Cc1ccccc1)[C@@H](C)c1ccccc1)[C@@H](C)c1ccccc1)C(=O)CN(C(=O)CN(CCCCN)C(=O)CN(Cc1ccccc1)C(=O)CN(Cc1ccccc1)C(=O)CNCCCCN)[C@@H](C)c1ccccc1 (H-[Nlys][Nphe][Nphe][Nlys][Nspe][Nspe][Nlys][Nspe][Nspe][Nlys][Nphe][Nphe]-NH2)	6.3 (≈ 11.1 µg/mL)	3.1 (≈ 5.47 µg/mL)	12.5	29	60.9	22.3	83	3.5
C[C@@H](c1ccccc1)N(CC(=O)NCC(=O)NC[C@H](N)C(=O)NCC(=O)N[C@@H](Cc1c[nH]cn1)C(N)=O)C(=O)CN(CCCCN)C(=O)CN(C(=O)CN(C(=O)CN(CCCCN)C(=O)CN(C(=O)CN(C(=O)CN(CCCCN)C(=O)CN(C(=O)CN(C(=O)CNCCCCN)[C@@H](C)c1ccccc1)[C@@H](C)c1ccccc1)[C@@H](C)c1ccccc1)[C@@H](C)c1ccccc1)[C@@H](C)c1ccccc1)[C@@H](C)c1ccccc1 (H-[Nlys][Nspe][Nspe][Nlys][Nspe][Nspe][Nlys][Nspe][Nspe][Nlys][Nspe]G-X1)	12.5 (≈ 24.9 µg/mL)	12.5 (≈ 24.9 µg/mL)	2.02	8.79	23.2	51.1	> 100	4
C[C@@H](c1ccccc1)N(CC(=O)NC[C@H](N)C(=O)NCC(=O)N[C@@H](Cc1c[nH]cn1)C(N)=O)C(=O)CN(CCCCN)C(=O)CN(C(=O)CN(C(=O)CN(CCCCN)C(=O)CN(C(=O)CN(C(=O)CN(CCCCN)C(=O)CN(C(=O)CN(C(=O)CNCCCCN)[C@@H](C)c1ccccc1)[C@@H](C)c1ccccc1)[C@@H](C)c1ccccc1)[C@@H](C)c1ccccc1)[C@@H](C)c1ccccc1)[C@@H](C)c1ccccc1 (H-[Nlys][Nspe][Nspe][Nlys][Nspe][Nspe][Nlys][Nspe][Nspe][Nlys][Nspe]-X1)	12.5 (≈ 24.2 µg/mL)	12.5 (≈ 24.2 µg/mL)	0.04	6.22	19.1	62.6	> 100	5
C[C@@H](c1ccccc1)N(CC(=O)N(CCCCN)CC(=O)N(CCc1c[nH]c2ccccc12)CC(=O)N(CCc1c[nH]c2ccccc12)CC(=O)NC[C@H](N)C(=O)NCC(=O)N[C@@H](Cc1c[nH]cn1)C(N)=O)C(=O)CN(CCCCN)C(=O)CN(CCCCN)C(=O)CN(C(=O)CN(C(=O)CN(CCCCN)C(=O)CN(C(=O)CN(C(=O)CNCCCCN)[C@@H](C)c1ccccc1)[C@@H](C)c1ccccc1)[C@@H](C)c1ccccc1)[C@@H](C)c1ccccc1 (H-[Nlys][Nspe][Nspe][Nlys][Nspe][Nspe][Nlys][Nlys][Nspe][Nlys][Gly(N(CH2)2(3-indolyl))][Gly(N(CH2)2(3-indolyl))]-X1)	> 25	6.3 (≈ 13.5 µg/mL)	3.83	4.23	3.38	> 100	> 100	–
C[C@@H](c1ccccc1)N(CC(=O)N(CC(=O)N(CCCCN)CC(=O)N(CC(=O)N(CC(=O)N(CCCCN)CC(=O)N(CC(=O)N(CC(=O)N(CCCCN)CC(=O)N(CC(=O)N(CC(N)=O)Cc1ccccc1)Cc1ccccc1)Cc1ccccc1)Cc1ccccc1)Cc1ccccc1)Cc1ccccc1)Cc1ccccc1)C(=O)CN(CCCCN)C(=O)CNC(=O)[C@H](Cc1c[nH]cn1)NC(=O)CNC(=O)CN (H-GGHG[Nlys][Nspe][Nphe][Nlys][Nphe][Nphe][Nlys][Nphe][Nphe][Nlys][Nphe][Nphe]-NH2)	25 (≈ 50.7 µg/mL)	> 25	-0.43	0.18	1.36	> 100	> 100	–
C[C@@H](c1ccccc1)N(CC(=O)NC[C@H](N)C(=O)NCC(=O)N[C@@H](Cc1c[nH]cn1)C(N)=O)C(=O)CN(CCCCN)C(=O)CN(CCCCN)C(=O)CN(C(=O)CN(C(=O)CN(CCCCN)C(=O)CN(C(=O)CN(C(=O)CN(CCCCN)C(=O)CN(CCc1c[nH]c2ccccc12)C(=O)CN(CCc1c[nH]c2ccccc12)C(=O)CNCCCCN)[C@@H](C)c1ccccc1)[C@@H](C)c1ccccc1)[C@@H](C)c1ccccc1)[C@@H](C)c1ccccc1 (H-[Nlys][Gly(N(CH2)2(3-indolyl))][Gly(N(CH2)2(3-indolyl))][Nlys][Nspe][Nspe][Nlys][Nspe][Nspe][Nlys][Nlys][Nspe]-X1)	> 25	6.3 (≈ 13.5 µg/mL)	4.93	6.1	5.26	> 100	> 100	–
C[C@@H](c1ccccc1)N(CC(=O)N(CCCCN)CC(=O)N(CC(=O)N(CC(=O)N(CCCCN)CC(=O)N(CC(=O)N(CC(=O)NC[C@H](N)C(=O)NCC(=O)N[C@@H](Cc1c[nH]cn1)C(N)=O)Cc1ccccc1)Cc1ccccc1)[C@@H](C)c1ccccc1)[C@@H](C)c1ccccc1)C(=O)CN(C(=O)CN(CCCCN)C(=O)CN(Cc1ccccc1)C(=O)CN(Cc1ccccc1)C(=O)CNCCCCN)[C@@H](C)c1ccccc1 (H-[Nlys][Nphe][Nphe][Nlys][Nspe][Nspe][Nlys][Nspe][Nspe][Nlys][Nphe][Nphe]-X1)	> 25	25 (≈ 51.1 µg/mL)	0.66	2.32	7.73	> 100	> 100	–
C[C@@H](c1ccccc1)N(CC(=O)N(CCCCN)CC(=O)N(CC(=O)N(CC(=O)N(CCCCN)CC(=O)N(CC(=O)N(CC(=O)N(CCCCN)CC(=O)N(CC(=O)N(CC(N)=O)Cc1ccccc1)Cc1ccccc1)Cc1ccccc1)Cc1ccccc1)Cc1ccccc1)Cc1ccccc1)C(=O)CN(Cc1ccccc1)C(=O)CN(CCCCN)C(=O)[C@H](Cc1c[nH]cn1)NC(=O)CNC(=O)CN (H-GGH[Nlys][Nphe][Nspe][Nlys][Nphe][Nphe][Nlys][Nphe][Nphe][Nlys][Nphe][Nphe]-NH2)	25 (≈ 49.3 µg/mL)	> 25	-0.71	-0.22	0.92	> 100	> 100	–
